Assay results: patent publication US20240132519A1, “NRF2-ACTIVATING COMPOUND” (SENJU PHARMACEUTICAL CO., LTD., priority 2020, published 2024)
Marks after values point to notes of the source that are not given here.

Key:
[1] = target: binding between NRF2 and KEAP1 (Homo sapiens (Human), UniProt Q14145); experiment: Binding assay: inhibition of binding between NRF2 and KEAP1 by BRET (NanoLuc-NRF2 and KEAP1-HaloTag cell lysates); conditions: Test Example 3; separated diastereomers; mean, N=2
Description: The inhibitory activity of each compound on the binding between NRF2 and KEAP1 was measured by bioluminescence resonance energy transfer (BRET) assay. A plasmid having human NRF2 (Original Clone ID: ha01449s1) sequence fused with NanoLuc (19 kDa, Promega) at the N-terminal was transduced into HCE-T cells (immortalized human corneal epithelial cells) using FuGENE HD (Promega). 48 hours after transduction, the cell lysate was collected and used as an NRF2-expressing cell lysate. A plasmid having human KEAP1 (Original Clone ID: cs00328) sequence fused with HaloTag (33 kDa, Promega) at the C-terminal was transduced into HCE-T cells using FuGENE HD (Promega). After 24 hours, HaloTag Nano BRET 618 Ligand (Promega) was added to the medium. The cell lysate cultured for 24 hours after the addition was used as a KEAP1-expressing cell lysate.
The NRF2-expressing cell lysate and the KEAP1-expressing cell lysate were adjusted so that the luminescence and fluorescence intensities per well were constant. Tables 1 and 2 show the formulation of each reaction solution.
Each test substance at a concentration 100 times higher than the test concentration was dissolved in dimethylsulfoxide for adjustment. 49 μL of KEAP1 solution was added to a 96-well polystyrene microplate (FALCON) to which 1 μL of each test substance solution was added, followed by incubation for 15 minutes. Then, 50 μL of NRF2 solution was added to the above solution, followed by incubation for 1 hour. To measure the binding between NRF2 and KEAP1, NanoBRET Nano-Glo Substrate (Promega) diluted with Opti-Mem (Thermo Fisher Scientific) was added, followed by shaking for 30 seconds. Then, luminescence and fluorescence were measured using the GloMax Discover System (Promega). A 495-nm short pass filter and a 600-nm long pass filter were respectively used to measure donor and acceptor emission values. A value obtained by dividing the acceptor emission value by the donor emission value was regarded as BRET value. A BRET value when the compound was not added, and a BRET value when the KEAP1 solution was not added were respectively used as binding rates of 100% and 0%, and the binding rate when the compound was added was calculated. Further, using this binding rate, the 50% binding inhibitory activity concentration (IC50) was calculated from the following formula. The test was performed at N=2.
IC50(M)=10^(LOG(A/B)×(50−C)/(D−C)+LOG(B)) • A: higher concentration out of 2 close concentrations across the inhibition rate of 50% • B: lower concentration out of 2 close concentrations across the inhibition rate of 50% • C: inhibition rate at B • D: inhibition rate at A
(§1) Compounds A1/A2, compounds B1/B2, compounds C1/C2, and compounds D1/D2 were used as test substances. Binding assay and reporter assay were performed as in Test Example 1-1 and Test Example 1-2.

[2] = system: NRF2; experiment: Reporter assay: NRF2 activating action in HCE-T/ARE-Luc cells (ARE luciferase reporter gene assay); format: cell-based, human; conditions: Test Example 3; separated diastereomers; mean, N=3
Description: The NRF2 activating action of the compounds on cells was measured by a reporter gene assay. pGL4.37[luc2P/ARE/Hygro] (Promega) was introduced into HCE-T cells using FuGENE HD. Cells that acquired drug resistance as a result of transduction were screened by culture in the presence of 50 μg/mL hygromycin, and a clone strain, HCE-T/ARE-Luc cells, was established.
HCE-T/ARE-Luc cells were cultured using DMEM/F12 medium containing 10 ng/mL hEGF, 5 μg/mL insulin, 5% FBS, and 40 μg/mL gentamicin. As the assay medium, a medium with the same composition as that for the culture was prepared using phenol red-free DMEM/F12 medium.
HCE-T/ARE-Luc cells were seeded in a 96-well polystyrene microplate (FALCON) with 10000 cells per well. The cells were incubated in a CO2 incubator at 37° C. for 16 hours to allow for cell adhesion. The test substance was dissolved in dimethylsulfoxide to prepare a solution at a concentration 1000 times higher than the test concentration. The cells were treated with the test substance diluted 1000-fold with the assay medium and cultured for 24 hours. When measuring the activity of the reporter, the medium containing the test substance was removed, and then a new medium and a substrate of ONE-GloEX Luciferase Assay System (Promega) were added. The plate was shaken for 1 minute and then allowed to stand at ordinary temperature for 10 minutes, and luminescence was detected using the GloMax Discover System (Promega).
The test was performed at N=3, and the 50% activation concentration of each test substance was calculated by creating a calibration curve between two concentrations across the luminescence incensity of 50%.
as §1

[3] = system: HCE-T cells; experiment: Cell viability test in HCE-T cells (Cell Counting Kit-8, 24 hours); format: cell-based, human; conditions: mean, N=3
Description: To confirm cell viability, HCE-T cells were seeded at 10000 cells per well in a 96-well polystyrene microplate (IWAKI). The cells were cultured in a CO2 incubator at 37° C. for 16 hours to allow the cells to adhere. The culture of the HCE-T cells was performed using DMEM/F12 medium containing 10 ng/mL hEGF, 5 μg/mL insulin, 5% FBS, and 40 μg/mL gentamicin.
Each test substance was dissolved in dimethyl sulfoxide to prepare a stock solution with a concentration that is 1000 times the test concentration. DMEM/F12 medium containing 40 μg/mL gentamicin was used as assay medium. The medium containing serum and growth factors was removed and replaced with assay medium in which each test substance was appropriately serially diluted, and the cell viability was measured after 24 hours. Cell Counting Kit-8 (Dojindo Laboratories) was added to each well in an amount that is 1/10 the amount of the medium. Color reaction was performed for 1 hour in a CO2 incubator, and absorbance at 450 nm was measured with a microplate reader (Corona Electric Co., Ltd.). […] The test was performed at N=3.

binding between NRF2 and KEAP1, sequence (Q14145 whole entry, the tested form may be a part): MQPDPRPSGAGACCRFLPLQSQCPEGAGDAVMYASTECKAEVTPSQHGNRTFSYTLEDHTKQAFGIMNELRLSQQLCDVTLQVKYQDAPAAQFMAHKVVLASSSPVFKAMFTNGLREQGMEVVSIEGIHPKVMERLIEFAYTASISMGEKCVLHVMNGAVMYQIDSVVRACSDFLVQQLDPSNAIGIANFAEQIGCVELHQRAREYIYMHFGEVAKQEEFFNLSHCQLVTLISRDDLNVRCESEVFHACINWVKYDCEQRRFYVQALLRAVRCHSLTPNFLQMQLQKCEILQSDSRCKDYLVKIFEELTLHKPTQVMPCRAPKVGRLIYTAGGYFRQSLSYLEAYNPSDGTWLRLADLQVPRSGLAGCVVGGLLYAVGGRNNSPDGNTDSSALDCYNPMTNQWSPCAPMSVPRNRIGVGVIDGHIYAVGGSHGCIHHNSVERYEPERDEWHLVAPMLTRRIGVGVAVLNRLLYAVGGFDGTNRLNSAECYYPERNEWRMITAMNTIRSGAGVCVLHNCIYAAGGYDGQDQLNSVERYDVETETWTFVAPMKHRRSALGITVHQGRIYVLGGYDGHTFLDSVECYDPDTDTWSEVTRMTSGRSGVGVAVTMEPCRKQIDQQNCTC

IC50 [1] | EC50 [2] | SMILES | Cytotoxic concentration (concentration that does not affect cell viability) [3]
0.17 nM | 0.67 nM | CC[C@@H]1CN(Cc2cc(C(c3ccc(C(C)=O)s3)C(C)(C)C(=O)O)ccc2C)S(=O)(=O)c2cnccc2O1 (single isomer, unassigned) [Compound D1] | 34.1 µM
5.17 nM | 513 nM | CC[C@@H]1CN(Cc2cc(C(c3ccc(C(C)=O)s3)C(C)(C)C(=O)O)ccc2C)S(=O)(=O)c2cnccc2O1 (single isomer, unassigned) [Compound D2] | 14.7* uM
0.14 nM | 5.82 nM | CC[C@@H]1CN(Cc2cc([C@@H](c3ccc(C(C)=O)s3)[C@@H](C)C(=O)O)ccc2C)S(=O)(=O)c2ccccc2O1 [Compound A1, (2R,3S)-3-(5-acetylthiophen-2-yl)-3-(3-{[(R)-4-ethyl-1,1-dioxide-3,4-dihydro-2H-benzo[b][1,4,5]oxathiazepin-2-yl]methyl}-4-methylphenyl)-2-methylpropanoic acid] | 111.4 µM
0.71 nM | 317 nM | CC[C@@H]1CN(Cc2cc(C(c3ccc(C(C)=O)s3)[C@H](C)C(=O)O)ccc2C)S(=O)(=O)c2ccccc2O1 (stereo partly drawn) [Compound A2] | 65.3** uM
0.17 nM | 0.98 nM | CC[C@@H]1CN(Cc2cc([C@@H](c3ccc(C(C)=O)s3)[C@@H](C)C(=O)O)ccc2C)S(=O)(=O)c2cnccc2O1 [Compound B1, (2R,3S)-3-(5-acetylthiophen-2-yl)-3-(3-{[(R)-4-ethyl-1,1-dioxide-3,4-dihydro-2H-pyrido[4,3-b][1,4,5]oxathiazepin-2-yl]methyl}-4-methylphenyl)-2-methylpropanoic acid] | 345.4 µM
1.01 nM | 90.1 nM | CC[C@@H]1CN(Cc2cc(C(c3ccc(C(C)=O)s3)[C@H](C)C(=O)O)ccc2C)S(=O)(=O)c2cnccc2O1 (stereo partly drawn) [Compound B2] | 181.1* uM
0.15 nM | 3.12 nM | CC[C@@H]1CN(Cc2cc([C@@H](c3cc(OC)c(C(C)=O)s3)[C@@H](C)C(=O)O)ccc2C)S(=O)(=O)c2cnccc2O1 [Compound C1, (2R,3S)-3-(5-acetyl-4-methoxythiophen-2-yl)-3-(3-{[(R)-4-ethyl-1,1-dioxide-3,4-dihydro-2H-pyrido[4,3-b][1,4,5]oxathiazepin-2-yl]methyl}-4-methylphenyl)-2-methylpropanoic acid] | 53.5 µM
0.89 nM | 777 nM | CC[C@@H]1CN(Cc2cc(C(c3cc(OC)c(C(C)=O)s3)[C@H](C)C(=O)O)ccc2C)S(=O)(=O)c2cnccc2O1 (stereo partly drawn) [Compound C2] | 30.7* uM
